Experiments:
[1] = tested on: FOXO3; experiment: SGK1 downstream pathway: Western blot of FOXO3 phosphorylation at Serine 315 in CD34+ cells; assay type: cell-based, human; conditions: CD34+ cells from a healthy donor, day 11 of differentiation, 1-hour time point, densitometry (FIG. 5)
Method: (§1) To verify SGK1 target engagement by Compound 346, CD34+ cells from a healthy donor were exposed to Compound 346 at the indicated dose (µM), harvested and lysed at the indicated time points. Phosphorylation of SGK1 at threonine 256 (Thr256) was assessed by Western blot using antibody anti-pSGK1 (Thr256) (Thermofisher) and anti-SGK1 (Cell Signaling). Human CD34+ cells, cells were collected on Day 11 of differentiation then exposed to Compound 346. According to the time course, cells were collected and lysed using RIPA buffer mixed with a phosphatase and protease inhibitors cocktail (Thermofisher). Sample protein concentrations were measured with the Pierce […] (ThermoFisher). The α-tubulin antibody (Cell Signaling) served as an internal control. Immunoreactive proteins were visualized by using an ECL® (enhanced chemiluminescence) detection system (BioRad). Optical density was measured with ImageJ software (National Institutes of Health, Bethesda, MD) and the ratio of phospho-SGK1 to total SGK1 was calculated, normalized on α-tubulin, and plotted based on the densitometry measurements. […] Furthermore, SGK1 downstream pathway activation was verified by measuring phosphorylation of FOXO3 at Serine 315, a direct target of activated SGK1. Quantification of FOXO3 activation was assessed by Western Blot using antibodies anti-pFOXO3 (Ser315) and anti-FOXO3 (Cell Signaling). […]

[2] = tested on: sickle erythroid cells; experiment: Sickling assay under hypoxia (ImageStream flow cytometry) of 21-day differentiated erythroid cells; assay type: cell-based, human; conditions: cells derived from CD34+ cells of sickle patients, 21 days of differentiation, 4 hours at 2% oxygen, compared to vehicle, p < 0.01 (FIG. 6)
Method: To evaluate the effect of Compound 346 in sickle erythroid cells sickling, a sickling assay was conducted. […] Purified CD34+ cells were differentiated for 21 days. At the end of the differentiation, cells were incubated for 4 hours at 2% of oxygen in Hemox Buffer (Fisher Scientific) supplemented with 10mM Glutamine (Gibco) and 0.5% BSA (Sigma Aldrich). After exposure to hypoxia, cells were fixed with 25% of glutaraldehyde (Sigma Aldrich) and transferred to tubes for flowcytometry analysis, using a Amnis® ImageStream® flow cytometer to assess abnormal shaped cells. Cells were determined using RMS of brightfield image, and single cells using Area vs Aspect Ratio of brightfield image, and live cells were identified using a Live Dead NIR stain. Single living cells were analyzed using the following masking of the brightfield image: Skeleton (M1, Ch1, Thin), Object (M1, Ch1, Tight). Finally, the sickling factor was calculated using the following feature: Length_Skeleton (M1, CH1, Thin)/Width_(M1, Ch1, Tight). Cells with a sickle factor feature of 1.4 or higher were sickled. Cells with a sickle factor feature less than 1.4 were not sickled.

[3] = tested on: human CD34+ cells; conditions: for F-cell (HbF+) frequency in enucleated GlyA+ cells / fold change in fetal hemoglobin expression: 14 days of differentiation; for F-cell (HbF+) frequency in enucleated GlyA+ cells: compared to control (DMSO) (FIG. 3A); for fold change in fetal hemoglobin expression: human CD34+ cells, compared to control (Vehicle as DMSO) (FIG. 3B)
Method: Mobilized CD34+ Human Stem/Progenitor Cells (HSPC) from healthy individuals were cultured for 3 days in a maintenance media consisting of X-VIVO 10 (VWR), 100 U/mL penicillin-streptomycin (ThermoFisher), 2mM L-glutamine (Fisher Scientific), 100 ng/mL Recombinant Human Stem Cell Factor (SCF), 100 ng/mL Recombinant Human Thrombopoietin (TPO) and 100 ng/mL Recombinant Human Flt-3 Ligand (Flt-3L) (all three from ThermoFisher). Cells were differentiated into erythroid cells using a three-step differentiation protocol developed by the Luc Douay group (Giarratana et al. 2005). In brief, CD34+ cells were cultured for 7 days in Step 1 media, consisting of Iscove's modified Dulbecco's medium (IMDM) (ThermoFisher) supplemented with 1X GlutaMAX, 100 U/mL penicillin-streptomycin (ThermoFisher), 5% human AB+plasma, 330 ug/mL human holo-transferrin, 10 ug/mL human insulin, 2 U/mL heparin, 1 uM/mL hydrocortisone (Sigma-Aldrich), 3 U/mL recombinant human erythropoietin (EPO) (ThermoFisher), 100 ng/mL SCF (ThermoFisher) and 5 ng/mL interleukin 3 (IL-3) (SigmaAldrich). On day 7, cells were transferred to step 2 media, a step 1 media without hydrocortisone and IL-3 and cultured for 3-4 days. Then cells were cultured for 8-9 days in step 3 media, a step 2 media without SCF. […] To determine the percentage of HbF-positive cells (F-cells), differentiated cells were fixed and permeabilized using a fixation kit (ThermoFisher). Cells were stained with PE-Cy7-conjugated anti-CD235 or PE-conjugated anti-CD71 antibodies. HbF levels were detected using Allophycocyanin (APC)-conjugated anti-HbF antibody (ThermoFisher). The acquisition of stained cells was performed on BD FACSCanto™ and the analysis was run using FlowJo™ Software.
After 14 days of differentiation, cells were fixed and stained with CD235a, CD71 and fetal hemoglobin antibodies for flowcytometry analysis.

[4] = biological target: T1, SGK1 (Homo sapiens, UniProt O00141); experiment: SGK1 target engagement: Western blot of SGK1 phosphorylation at Thr256 in CD34+ cells; assay type: cell-based; conditions: CD34+ cells from a healthy donor, day 11 of differentiation, 1h after exposure (FIG. 5)
T1 construct: endogenous in cells; host or cells: Mobilized human CD34+ HSPC from a healthy donor, day 11 of erythroid differentiation
T1 sequence (O00141 1-431): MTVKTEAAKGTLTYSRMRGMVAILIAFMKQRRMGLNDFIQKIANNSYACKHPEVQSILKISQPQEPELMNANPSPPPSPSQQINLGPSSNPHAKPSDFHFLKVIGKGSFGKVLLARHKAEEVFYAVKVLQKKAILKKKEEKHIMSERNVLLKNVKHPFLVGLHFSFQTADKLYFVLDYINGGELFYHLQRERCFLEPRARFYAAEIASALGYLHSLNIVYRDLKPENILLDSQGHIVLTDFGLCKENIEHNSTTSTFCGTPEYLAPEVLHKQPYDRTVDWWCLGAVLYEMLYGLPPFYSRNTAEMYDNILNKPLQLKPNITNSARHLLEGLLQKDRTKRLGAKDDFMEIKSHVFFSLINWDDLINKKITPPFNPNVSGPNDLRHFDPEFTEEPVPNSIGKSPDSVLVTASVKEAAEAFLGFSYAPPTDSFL
Method: as §1

[5] = tested on: CD34+ cells from patients with sickle cell disease; conditions: for F-cell (HbF+) frequency in enucleated GlyA+ cells: CD34+ cells from patients with sickle cell disease, compared to control (DMSO) (FIG. 4A)
Description: To measure the effect of Compound 346 on fetal hemoglobin induction in CD34+ cells from patients with sickle cell disease, circulating CD34+ progenitor cells were isolated from total blood obtained from sickle cell patients, by performing a positive selection for CD34+ cells with magnetic beads (Miltenyi Biotec). Purified CD34+ cells were differentiated for 14 days. After differentiation, cells were fixed and stained with CD235a, CD71 and fetal hemoglobin antibodies for flowcytometry analysis.

[6] = CD34+ HSPC from healthy individuals

Compound	phosphorylation of FOXO3 at Serine 315 [1]	sickling of erythroid cells induced by hypoxia [2]	F-cell (HbF+) frequency in enucleated GlyA+ cells [3, 6]	increase of HbF+ cells (HbF+ fold change to control) ([3]; CD34+ HSPC from healthy individuals, 21 days of differentiation, compared to DMSO (FIG. 2B))	frequency of F-cells (HbF+) ([3]; CD34+ HSPC from healthy individuals, 21 days of differentiation, compared to vehicle (DMSO) (FIG. 2A))	fold change in fetal hemoglobin expression [3]	p-SGK1 (Thr256), ratio of phospho-SGK1 to total SGK1 [4]	F-cell (HbF+) frequency in enucleated GlyA+ cells [5]	HbF+ fold change to control ([5]; CD34+ cells from sickle cell patients, 14 days of differentiation, compared to control (Vehicle as DMSO) (FIG. 4B))
Cc1n[nH]c2nc(-c3ccc(NS(=O)(=O)c4cc(Cl)ccc4F)cc3)nc(OC3CCN(C(C)C)CC3)c12 [Compound 346]	decrease	significantly protected from sickling	increases	about 1.5 fold	increased	1,5 fold	decrease	increasing	1.5 fold
NC(=O)NO [Hydroxyurea, hydroxyurea, reference compound]			increases			1,5 fold		increase	
